9 molecules from patent publication US20190275012A9, “SUBSTITUTED THIAZOLO-PYRIDINE COMPOUNDS AS MALT1 INHIBITORS” (Lupin Limited, priority 2016, published 2019) can be followed below.

Experiment [1] deals with OCI-Ly-10 cells. The experiment can be described thus: Anticancer assay (14 days), cell viability by CCK-8. Format: cell-based. To be noted: Homo sapiens, OCI-Ly10, 336 h, 14 days treatment, fresh treatment every 5th day, CCK-8 viability, read-out: Ly-10 (14d) inhibition IC50. In outline: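 OCI-Ly-10 cells in IMDM + 20% FBS exposed to compound for 13–15 days, with media and compound refreshed every 5th day. Viability by CCK-8 absorbance at 450 nm (650 nm background); % inhibition versus 0.1% DMSO medium control.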

For experiment [2], the system named is NF-kB transcriptional activity in HEK-293-NF-kB-Luc cell line overexpressing MALT1. The experiment can be described thus: NF-kB reporter assay (luciferase, MALT1 stably overexpressed). Format: cell-based. As to conditions: Homo sapiens, 24 h, HEK-293-NF-kB-Luc cells stably overexpressing MALT1, 24 h treatment, Bright Glo luminescence; read-out: NF-kB inhibition IC50. The procedure, abridged:
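HEK-293-NF-κB-Luc cells stably overexpressing MALT1 were seeded overnight, then exposed to test compounds for 24 h. Bright Glo added 10 min at ambient temperature and luminescence read; % inhibition calculated against 0.1% DMSO controls.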
On the technique in general: Reporter assays use an easily measured gene product as a stand-in for the process of interest.

In experiment [3] the target is T1, full length MALT1 enzyme (Homo sapiens, UniProt Q9UDY8).
T1 construct: a fluorescence based assay with full length MALT1 enzyme
T1 sequence (Q9UDY8 1-824): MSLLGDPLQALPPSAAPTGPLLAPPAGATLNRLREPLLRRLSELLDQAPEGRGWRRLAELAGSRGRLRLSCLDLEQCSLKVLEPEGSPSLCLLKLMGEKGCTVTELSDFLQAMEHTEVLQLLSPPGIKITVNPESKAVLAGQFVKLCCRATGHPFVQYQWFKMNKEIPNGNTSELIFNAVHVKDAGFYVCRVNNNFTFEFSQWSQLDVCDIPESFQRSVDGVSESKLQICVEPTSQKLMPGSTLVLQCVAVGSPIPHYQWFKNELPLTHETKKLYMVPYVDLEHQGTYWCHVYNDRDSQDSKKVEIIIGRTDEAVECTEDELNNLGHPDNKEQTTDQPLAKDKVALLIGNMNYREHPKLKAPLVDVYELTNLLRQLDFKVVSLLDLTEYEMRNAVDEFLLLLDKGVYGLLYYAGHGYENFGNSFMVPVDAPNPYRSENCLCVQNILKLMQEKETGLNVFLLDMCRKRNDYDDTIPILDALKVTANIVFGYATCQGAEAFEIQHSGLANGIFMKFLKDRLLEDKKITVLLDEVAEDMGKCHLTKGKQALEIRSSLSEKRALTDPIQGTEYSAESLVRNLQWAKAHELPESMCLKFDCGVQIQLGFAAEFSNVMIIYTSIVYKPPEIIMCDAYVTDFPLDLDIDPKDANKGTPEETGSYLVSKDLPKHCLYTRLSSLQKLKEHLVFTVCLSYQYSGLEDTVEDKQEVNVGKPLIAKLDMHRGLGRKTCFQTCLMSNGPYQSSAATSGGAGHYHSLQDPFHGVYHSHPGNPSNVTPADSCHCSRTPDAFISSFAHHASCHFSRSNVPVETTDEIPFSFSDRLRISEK
The experiment can be described thus: MALT1 biochemical assay (fluorescence based, Ac-Leu-Arg-Ser-Arg-AMC cleavage). To be noted: full length MALT1 protein, 2 h pre-incubation at RT, tetrapeptide substrate Ac-Leu-Arg-Ser-Arg-AMC, read-out: Malt 1 inhibition IC50. In outline:
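Full-length MALT1 (100-300 ng/well) was pre-incubated with compound for 2 h at RT, then 100 μM Ac-LRSR-AMC was added for 4-12 h. Buffer was 50 mM MES, 150 mM NaCl, 0.1% CHAPS, 1 M ammonium citrate, 10 mM DTT, pH 7, with 0.5% DMSO. IC50 was derived from AMC fluorescence (ex 360/em 460 nm).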

Structures are written as SMILES.

Usually IC50 stands for the concentration that gives 50% inhibition. Turning to `COc1ncc(NC(=O)Nc2cnc3sc(C)nc3c2C(C)C)cc1Cl` [Compound 119, 1-(5-Chloro-6-methoxypyridin-3-yl)-3-(7-isopropyl-2-methylthiazolo[5,4-b]pyridin-6-yl)urea], the IC50 lay within 251 to 500 nM in experiment [1], 101 to 500 nM in experiment [2] and 1 to 50 nM in experiment [3].
Turning to `COC(c1c(NC(=O)Nc2cnc(-n3nccn3)c(C(F)(F)F)c2)cnc2sc(C)nc12)C(F)(F)F` (single isomer, unassigned) [Compound 95b, 1-(6-(2H-1,2,3-triazol-2-yl)-5-(trifluoromethyl)pyridin-3-yl)-3-(2-methyl-7-(2,2,2-trifluoro-1-methoxyethyl)thiazolo[5,4-b]pyridin-6-yl)urea], the IC50 in experiment [1] lay in the range of 0.1 to 25 nM; in experiment [2] it was 1 to 100 nM; in experiment [3] it was 1 to 50 nM.
Take `Cc1nc2c(C3(CO)CC3)c(NC(=O)Nc3cnc(-n4nccn4)c(C(F)(F)F)c3)cnc2s1` [Compound 223, 1-(6-(2H-1,2,3-Triazol-2-yl)-5-(trifluoromethyl)pyridin-3-yl)-3-(7-(1-(hydroxymethyl)cyclopropyl)-2-methylthiazolo[5,4-b]pyridin-6-yl)urea]: the IC50 in experiment [1] was in the range of 251 to 500 nM; in experiment [2] it was 1 to 100 nM; in experiment [3], 1 to 50 nM.
For `COc1nc(-n2nccn2)c(Cl)cc1NC(=O)Nc1cnc2sc(C)nc2c1C(OC)C(C)C` (single isomer, unassigned) [Compound 81b, 1-(5-Chloro-2-methoxy-6-(2H-1,2,3-triazol-2-yl)pyridin-3-yl)-3-(7-(1-methoxy-2-methylpropyl)-2-methylthiazolo[5,4-b]pyridin-6-yl)urea], in that order: 26 to 100 nM, 1 to 100 nM and 1 to 50 nM.
Consider `COC(C)c1c(NC(=O)Nc2ccc(-n3nccn3)c(C(F)(F)F)c2)cnc2sc(C)nc12` (single isomer, unassigned) [Compound 143b, 1-(4-(2H-1,2,3-Triazol-2-yl)-3-(trifluoromethyl)phenyl)-3-(7-(1-methoxyethyl)-2-methylthiazolo[5,4-b]pyridin-6-yl)urea], for which the figures for the IC50 in experiment [1], in experiment [2] and in experiment [3] were 0.1 to 25 nM, 1 to 100 nM and 1 to 50 nM, respectively.
On the same counts, the results for `COc1nc(-n2nccn2)c(C(F)(F)F)cc1NC(=O)Nc1cnc2sc(C)nc2c1C(OC)C(C)C` (single isomer, unassigned) [Compound 80b, 1-(7-(1-Methoxy-2-methylpropyl)-2-methylthiazolo[5,4-b]pyridin-6-yl)-3-(2-methoxy-6-(2H-1,2,3-triazol-2-yl)-5-(trifluoromethyl)pyridin-3-yl)urea] are 26 to 100 nM, 1 to 100 nM and 1 to 50 nM.
On the same counts, the results for `COCCN(c1c(NC(=O)Nc2cnc(-n3nccn3)c(Cl)c2)cnc2sc(C)nc12)C1CC1` [Compound 49, 1-(5-Chloro-6-(2H-1,2,3-triazol-2-yl)pyridin-3-yl)-3-(7-(cyclopropyl(2-methoxyethyl)amino)-2-methylthiazolo[5,4-b]pyridin-6-yl)urea] are 26 to 100 nM, 1 to 100 nM and 1 to 50 nM.
For the molecule `COC(c1ccc(F)cc1)c1c(NC(=O)Nc2cnc(-n3nccn3)c(C(F)(F)F)c2)cnc2sc(C)nc12` (single isomer, unassigned) [Compound 85a, 1-(6-(2H-1,2,3-Triazol-2-yl)-5-(trifluoromethyl)pyridin-3-yl)-3-(7-((4-fluorophenyl)(methoxy)methyl)-2-methylthiazolo[5,4-b]pyridin-6-yl)urea], the IC50 fell in the range of 101 to 250 nM in experiment [1], 1 to 100 nM in experiment [2] and 1 to 50 nM in experiment [3].
For `COC(C)c1c(NC(=O)Nc2ccc(-n3nccn3)c(Cl)c2)cnc2sc(C)nc12` (single isomer, unassigned) [Compound 158b, 1-(3-Chloro-4-(2H-1,2,3-triazol-2-yl)phenyl)-3-(7-(1-methoxyethyl)-2-methylthiazolo[5,4-b]pyridin-6-yl)urea], the half-maximal inhibitory concentration (IC50) in experiment [1] is 0.1 to 25 nM; in experiment [2], 1 to 100 nM; in experiment [3], 1 to 50 nM.
